Results on four compounds are retold here after paper PMC9961271, “Inhibitory Effects of a Novel μ-Opioid Receptor Nonpeptide Antagonist, UD-030, on Morphine-Induced Conditioned Place Preference” (International Journal of Molecular Sciences, 2023).

Data set [1] addresses T1, human MOP (Homo sapiens, UniProt P35372). Put plainly: [35S]-GTPγS binding assay, hMOP/CHO membranes. It counts as biochemical. On the technique in general: GTPγS is a poorly hydrolysed GTP analogue; its binding reports G protein activation.
For data set [2], the system named is C57BL/6J mice. Put plainly: Acquisition of morphine-induced conditioned place preference. The following applies: for time spent in the drug-paired compartment, preconditioning / time spent in the drug-paired compartment, postconditioning: n = 8; for morphine-induced CPP score compared with the vehicle-pretreated group: Dunnett's test. It counts as in vivo, male C57BL/6J mice. The protocol: (§1) For the pharmacokinetic and pharmacological studies, morphine hydrochloride (Takeda Pharma, Osaka, Japan) was dissolved and diluted in saline and administered intraperitoneally (i.p.) in a volume of 10 mL/kg body weight. […] All experiments were conducted with a dose of morphine (10 mg/kg) that is sufficient to elicit CPP.
(§2) Male Crl:CD1 (ICR) mice (Japan CLEA, Tokyo, Japan) were used at 5 weeks of age for the pharmacokinetic analysis. Male C57BL/6J mice (Japan CLEA) were used at 7 weeks of age for the behavioral analyses. The mice were housed 4–6 per cage in an environment at 23 °C ± 1 °C and 50% ± 5% humidity with free access to food and water under a 12 h/12 h light/dark cycle. All experiments were performed with approval from the Institutional Animal Care and Use Committee at the Tokyo Metropolitan Institute of Medical Science.
(§3) The CPP test was performed using a two-compartment Plexiglas chamber. […] For the preconditioning and postconditioning phases, a T-style division with double 60 mm × 60 mm openings allowed the mice to access both compartments. During the conditioning phases, the openings were eliminated to restrict the mice to one of the compartments. The CPP apparatus was placed in a sound-attenuated, light-controlled box. On day 1 (preconditioning: habituation) and day 2 (preconditioning: pretest), the mice freely explored the two compartments for 900 s, and the time spent in each compartment during the exploratory period and locomotor activity were measured using an infrared detector (Neuroscience, Osaka, Japan). We selected a counterbalanced protocol to nullify each mouse’s initial preference as discussed previously. […] Conditioning was conducted once daily for 4 consecutive days (days 3–6). The mice were injected with morphine (10.0 mg/kg, i.p.) or saline and immediately confined to the black or white compartment for 60 min on day 3. On day 4, the mice were alternately injected with saline or drug and immediately confined to the opposite compartment for 60 min. On days 5 and 6, the same conditioning as on days 3 and 4 was repeated. The assignment of the mice to the conditioned compartment was performed randomly and counterbalanced across subjects. During the postconditioning phase on day 7, the time spent in each compartment was measured for 900 s. The CPP score was designated as the time spent in the drug-paired compartment on day 7 minus the time spent in the same compartment in the preconditioning phase on day 2.
(§4) The data were analyzed using two-way repeated-measures ANOVA followed by Sidak’s multiple-comparison post hoc test, one-way ANOVA followed by Dunnett’s multiple-comparison post hoc test, or Student’s t-test using GraphPad Prism software. Values of p < 0.05 were considered statistically significant.

Data set [3] deals with C57BL/6J mice. Description: Expression of morphine-induced conditioned place preference. The following applies: for time spent in the morphine-paired compartment, preconditioning / time spent in the morphine-paired compartment, postconditioning: n = 8; for morphine-induced CPP score compared with the vehicle-treated control group: 10 mg/kg p.o. before the postconditioning phase, Dunnett's test, UD-030 p = 0.038, NTX p = 0.042; for sedative effects (number of transitions between compartments): 10 mg/kg p.o., postconditioning phase. In kind it is in vivo, male C57BL/6J mice. The protocol:
as §1, §2, §3, §4

Data set [4] concerns the target T2, human NOP (Homo sapiens, UniProt P41146). Description: [35S]-GTPγS binding assay, hNOP/CHO membranes. It counts as biochemical.
For data set [5], the target named is T2, human NOP. Description: Competitive radioligand binding assay, hNOP/CHO membranes.
Data set [6] has as its target T3, human KOP (Homo sapiens, UniProt P41145). Description: [35S]-GTPγS binding assay, hKOP/CHO membranes. It counts as biochemical.
The nature of data set [7]: Pharmacokinetics after a single oral administration (plasma, LC-MS/MS). The following applies: male, Crl:CD1 (ICR), mouse; for concentration at 0.5 h / concentration at 1 h / concentration at 2 h / concentration at 4 h / concentration at 8 h / concentration at 24 h: in vivo; for AUC(0-t) / Cmax / Tmax: plasma; for Tmax: mice.
Data set [8] addresses T3, human KOP. Description: Competitive radioligand binding assay, hKOP/CHO membranes.
Data set [9] has as its target T4, human DOP (Homo sapiens, UniProt P41143). Put plainly: Competitive radioligand binding assay, hDOP/CHO membranes.
Data set [10] deals with T1, human MOP. Description: Competitive radioligand binding assay, hMOP/CHO membranes.
The target of data set [11] is T4, human DOP. Description: [35S]-GTPγS binding assay, hDOP/CHO membranes. It counts as biochemical.
The mark [12] stands for this setting: 10 mg/kg p.o. 60 min before each morphine treatment (10 mg/kg, i.p.).
[13] abbreviates: 10 mg/kg p.o. before each morphine treatment, UD-030 p < 0.001, NTX p = 0.003.
The mark [14] stands for this setting: 10 mg/kg p.o. 60 min before the postconditioning phase.
The mark [15] stands for this setting: 3 mg/kg p.o. 60 min before each morphine treatment (10 mg/kg, i.p.).

Structures can show the parent of a compound that is named as a salt.

For the compound `C[C@@H](NC(=O)[C@@H](N)Cc1ccc(O)cc1)C(=O)NCC(=O)N(C)[C@@H](Cc1ccccc1)C(=O)NCCO` [DAMGO, reference compound], the Emax on human MOP [1] (hMOP/CHO, read-out: maximal effect (agonistic activity)) is above 95%.

Turning to `CN1CC[C@]23c4c5ccc(O)c4O[C@H]2[C@@H](O)C=C[C@H]3[C@H]1C5` [Morphine, morphine hydrochloride], the “time spent in the drug-paired compartment, preconditioning” value with C57BL/6J mice [2] (morphine 10 mg/kg i.p. conditioning, vehicle-pretreated control mice) worked out at 443.1 ± 33.2 s. Besides, in the data set with C57BL/6J mice [2] (morphine 10 mg/kg i.p. conditioning, vehicle-pretreated control mice, p < 0.001 vs pre), the “time spent in the drug-paired compartment, postconditioning” value was 554.4 ± 31.8 s. In the data set with C57BL/6J mice [3] (morphine 10 mg/kg i.p. conditioning, vehicle-treated control mice), the “time spent in the morphine-paired compartment, preconditioning” value came out at 443.6 ± 34.4 s. Further, in the data set with C57BL/6J mice [3] (morphine 10 mg/kg i.p. conditioning, vehicle-treated control mice, p < 0.001 vs pre), the “time spent in the morphine-paired compartment, postconditioning” value worked out at 554.4 ± 29.7 s.

`O=C1CC[C@@]2(O)[C@H]3Cc4ccc(O)c5c4[C@@]2(CCN3CC2CC2)[C@H]1O5` [NTX, naltrexone, reference compound]: in the data set on C57BL/6J mice [2] (setting [12]), the “time spent in the drug-paired compartment, postconditioning” value was determined as 436.5 ± 49.7 s and the “time spent in the drug-paired compartment, preconditioning” value stood at 437.0 ± 38.1 s. In the data set with C57BL/6J mice [2] (setting [13]), the “morphine-induced CPP score compared with the vehicle-pretreated group” value is “significantly lower”. For the same compound, in the data set on C57BL/6J mice [3] (setting [14]), the “time spent in the morphine-paired compartment, postconditioning” value was found to be 474.1 ± 29.9 s and the “time spent in the morphine-paired compartment, preconditioning” value came to 441.6 ± 33.0 s. In the data set with C57BL/6J mice [3], the “morphine-induced CPP score compared with the vehicle-treated control group” value is reported as “significantly decreased” and the “sedative effects (number of transitions between compartments)” value is listed as “did not exert sedative effects”.

Consider `CC[C@]1(c2cc(NS(=O)(=O)C3CC3)ccc2F)[C@@H]2CN(CC3(O)Cc4ccccc4C3)C[C@@H]21` [UD-030], for which the EC50 at human NOP [4], on human KOP [6], at human MOP [1] and on human DOP [11] was above 10000 nM each time. Besides, the IC50 – broadly, the point on the concentration scale where inhibition reaches its midpoint – on human NOP [4] was 330 nM; on human KOP [6], 85 nM; on human MOP [1], 1.7 nM; at human DOP [11], 850 nM. In addition, the maximal inhibitory effect at human NOP [4] (against nociceptin), at human KOP [6] (against U-69593), at human MOP [1] (against DAMGO) and at human DOP [11] (against DPDPE) was above 95% each time. For the same compound, the “stimulation of [35S]-GTPγS binding” value on human NOP [4] (high concentration (10 µM)), at human KOP [6] (high concentration (10 µM)), on human MOP [1] (high concentration (10 µM)) and on human DOP [11] (high concentration (10 µM)) was “did not stimulate” each time. For the same compound, the Ki – broadly, a measure of affinity in units of concentration, obtained from inhibition or displacement – worked out at 1800 nM on human NOP [5], 460 nM on human KOP [8], 1800 nM on human DOP [9] and 3.1 nM on human MOP [10]. Moreover, the concentration at 0.5 h in data set [7] (0.5 mg/kg) was found to be 1.09 ± 0.4 ng/mL; in data set [7] (1 mg/kg), 4.76 ± 1.9 ng/mL; in data set [7] (2 mg/kg) it was 11.8 ± 5.4 ng/mL; in data set [7] (4 mg/kg), 27.7 ± 24 ng/mL. The concentration at 1 h in data set [7] (0.5 mg/kg) is 2.86 ± 1.6 ng/mL; in data set [7] (1 mg/kg), 6.98 ± 1.7 ng/mL; in data set [7] (2 mg/kg), 25.5 ± 2.2 ng/mL; in data set [7] (4 mg/kg), 119 ± 35 ng/mL. In addition, the concentration at 2 h in data set [7] (0.5 mg/kg) was 2.96 ± 0.3 ng/mL; in data set [7] (1 mg/kg), 14.9 ± 0.9 ng/mL; in [7] (2 mg/kg), 36.1 ± 8.3 ng/mL; in data set [7] (4 mg/kg), 72.7 ± 18 ng/mL. For the same compound, the concentration at 4 h in [7] (0.5 mg/kg) amounted to 4.61 ± 1.9 ng/mL; in [7] (1 mg/kg) it was 11.5 ± 2.9 ng/mL; in data set [7] (2 mg/kg), 26.7 ± 3.3 ng/mL; in data set [7] (4 mg/kg) it was 103 ± 15 ng/mL. Besides, the concentration at 8 h in data set [7] (0.5 mg/kg) is 4.95 ± 0.9 ng/mL; in [7] (1 mg/kg), 10.9 ± 2.1 ng/mL; in [7] (2 mg/kg), 18.8 ± 9.2 ng/mL; in [7] (4 mg/kg) it was 69.4 ± 10 ng/mL. Moreover, the concentration at 24 h in data set [7] (0.5 mg/kg) was determined as 0.231 ng/mL; in data set [7] (1 mg/kg) it was 0.358 ng/mL; in data set [7] (2 mg/kg) it was 0.35 ng/mL; in data set [7] (4 mg/kg), 0.395 ± 0.1 ng/mL. Further, the AUC(0-t) (commonly the area under the concentration-time curve up to a stated or last time point) is 72.3 ng·h/mL in data set [7] (0.5 mg/kg), 176 ng·h/mL in data set [7] (1 mg/kg), 350 ng·h/mL in data set [7] (2 mg/kg) and 1220 ng·h/mL in data set [7] (4 mg/kg). Further, the Cmax (as a rule, the highest concentration seen after dosing) in data set [7] (0.5 mg/kg) was 4.95 ng/mL; in data set [7] (1 mg/kg), 14.9 ng/mL; in [7] (2 mg/kg), 36.1 ng/mL; in data set [7] (4 mg/kg), 119 ng/mL. For the same compound, the Tmax (commonly the time at which the peak concentration occurs) was 8 h in data set [7] (0.5 mg/kg, Tmax, 0.5 mg/kg p.o.); 2 h in [7] (1 mg/kg, Tmax, 1 mg/kg p.o.); 2 h in [7] (2 mg/kg, Tmax, 2 mg/kg p.o.); 1 h in data set [7] (4 mg/kg, Tmax, 4 mg/kg p.o.); 1 to 8 h in data set [7] (4 mg/kg, time to reach the maximum plasma concentration (Tmax), over the doses 0.5, 1, 2 and 4 mg/kg p.o.). Further, the “time spent in the drug-paired compartment, postconditioning” value in the data set with C57BL/6J mice [2] (setting [15]) is 470.6 ± 16.5 s; in the data set on C57BL/6J mice [2] (setting [12]), 392.8 ± 42.3 s. Besides, the “time spent in the drug-paired compartment, preconditioning” value with C57BL/6J mice [2] (setting [15]) is 445.2 ± 18.9 s; with C57BL/6J mice [2] (setting [12]) it was 434.9 ± 30.5 s. Also, the “morphine-induced CPP score compared with the vehicle-pretreated group” value in the data set on C57BL/6J mice [2] (3 mg/kg p.o. before each morphine treatment, p = 0.023) was “significantly lower”; with C57BL/6J mice [2] (setting [13]), “significantly lower”. Moreover, the entries for the “time spent in the morphine-paired compartment, preconditioning” value in the data set with C57BL/6J mice [3] (3 mg/kg p.o. 60 min before the postconditioning phase) and in the data set with C57BL/6J mice [3] (setting [14]) were 466.8 ± 20.7 s and 461.3 ± 20.0 s, respectively. Further, the “time spent in the morphine-paired compartment, postconditioning” value in the data set with C57BL/6J mice [3] (3 mg/kg p.o. 60 min before the postconditioning phase, p = 0.012 vs pre) is 536.5 ± 24.8 s; in the data set with C57BL/6J mice [3] (setting [14]) it was 492.4 ± 32.8 s. The “morphine-induced CPP score compared with the vehicle-treated control group” value in the data set on C57BL/6J mice [3] is reported as “significantly decreased”. Also, the “sedative effects (number of transitions between compartments)” value in the data set with C57BL/6J mice [3] was “did not exert sedative effects”. The “behavioral abnormalities during the session” value in the data set with C57BL/6J mice [3] (high-dose (10 mg/kg, p.o.)) is on record as “No other notable behavioral abnormalities”.
